According to PMC8151276, “An Integrated Approach toward NanoBRET Tracers for Analysis of GPCR Ligand Engagement” (Molecules, 2021):

How the values were obtained:
Type in all cases: binding
CXCR4 = biological target: T1, CXCR4 (Homo sapiens, UniProt P61073); experiment: NanoBRET screen HiBiT-CXCR4 in HEK293
T1 construct: purchased Promega (in-house HiBiT-GPCR construct library, NanoBRET)
Description: (§1) Each tracer candidate was screened across the entire library of HiBiT-GPCR constructs using NanoBRET as the detection modality. As depicted in Figure 4A, the specificity of interactions was evaluated through decrease in BRET due to competitive displacement of a bound tracer by excess parental compound. Each tracer was analyzed for binding to each HiBiT-GPCR fusion in the absence and in the presence of competing parental compound. Briefly, HEK293 cells were transfected with HiBiT-GPCR constructs diluted into promoterless DNA to reduce expression and maximize translocation to the cell surface. Each tracer candidate was then screened at concentrations of 1 μM and 0.1 μM across cells expressing these fusions. Cells were treated for 1.5 h with tracer either alone or in the presence of 20 μM competing parental compound (i.e., control). BRET was measured upon addition of purified LgBiT and subsequent complementation with HiBiT genetically fused to a GPCR. The specificity of interactions was assessed through a decrease in BRET signal due to competitive displacement of the bound tracer. To further gauge the robustness of these interactions, the fold response over the control (i.e., BRETtracer/BRETcontrol) was calculated. We chose a 1.5-fold response, which translates to ≥7-fold signal over noise as the minimal threshold required to score an interaction as positive. […]. Below we highlight the screening results obtained for our exemplary fluorescent tracers based on Clozapine, Amitriptyline and AZD1283.
(§2) HiBiT-GPCR DNA constructs were diluted in 10 mM Tris pH 8 to a final concentration of 0.01 μg/μL, arrayed in 96-well plates and stored at −20 °C. For transfection, HEK293 cells were suspended in Opti-MEM (without phenol red) supplemented with 2% fetal bovine serum (Seradigm) and 100 units/mL penicillin–streptomycin (Gibco) at a final concentration of 220,000 cells/mL and dispensed into white 96-well plates at 90 μL/well. Subsequent transfections and screens were carried using an Agilent Bravo Automated Liquid Handling Platform. First, the 96-well HiBiT DNA arrays were diluted 25-fold in Opti-MEM (without serum or phenol red) to a final concentration of 0.0004 μg/μL and 20 μL of the diluted DNAs were transferred into new 96-well plates. Next, promoterless carrier DNA (1 μg/μL) was diluted 25-fold (0.04 μg/μL) and then dispensed into the diluted arrays at 20 μL/well. Following brief mixing, Viafect transfection reagent (Promega) diluted 16-fold into Opti-MEM was dispensed into the plates at 40 μL/well. After mixing by pipetting, plates were incubated for 10 min on the pipetting station deck. The DNA-transfection reagent complexes were then added to plates containing cells. To facilitate the screen, 10 μL of DNA-transfection reagent complexes were added in duplicates to the top 4 and bottom 4 rows, resulting in two identical 48-well arrays per plate. Plates with transfected cells were incubated for 18–20 h at 37 °C/5% CO2. A screen of each tracer across the entire library using two different concentrations requires duplicate plates of transfected cells. Depending on the number of tracers being screened, transfections can be scaled up using the same ratios. The next day, for each tracer, four 20× screening solutions in tracer dilution buffer (Promega) were prepared: two duplicates at final concentration of 20 μM and two duplicates at a final concentration of 2 μM. A competing unmodified compound was added to one of each duplicate at a final concentration of 400 μM. The four resulting solutions were diluted 4-fold in Opti-MEM without serum or phenol red to generate 5× solutions (5 µM and 0.5 µM tracer +/− 100 μM competing compound). To screen the library, a BioTek MultiFlo FX liquid dispenser was used to dispense 22.5 µL of tracer solution to the top 4 rows and 22.5 µL tracer + competing compound solution to the 4 bottom rows. Plates were briefly mixed on an orbital shaker and incubated for 1.5 h at room temperature. […]

HCRTR2 = biological target: T2, HCRTR2 (Homo sapiens, UniProt O43614); experiment: NanoBRET screen HiBiT-HCRTR2 in HEK293
T2 construct: purchased Promega (in-house HiBiT-GPCR construct library, NanoBRET)
T2 sequence (O43614 1-444): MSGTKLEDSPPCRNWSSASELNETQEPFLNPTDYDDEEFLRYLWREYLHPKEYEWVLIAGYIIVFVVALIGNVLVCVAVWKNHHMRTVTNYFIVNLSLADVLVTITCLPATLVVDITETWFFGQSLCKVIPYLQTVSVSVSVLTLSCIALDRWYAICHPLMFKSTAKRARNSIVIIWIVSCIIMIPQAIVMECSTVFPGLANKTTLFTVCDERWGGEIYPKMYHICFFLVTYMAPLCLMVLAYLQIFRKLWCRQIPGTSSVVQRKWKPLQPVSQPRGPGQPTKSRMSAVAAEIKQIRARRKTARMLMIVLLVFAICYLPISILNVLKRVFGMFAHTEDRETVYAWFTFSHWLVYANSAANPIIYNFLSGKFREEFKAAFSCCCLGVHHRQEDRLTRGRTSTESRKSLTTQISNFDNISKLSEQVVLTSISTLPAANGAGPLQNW
Description: as §1, §2

MCHR1 = biological target: T3, MCHR1 (Homo sapiens, UniProt Q99705); experiment: NanoBRET screen HiBiT-MCHR1 in HEK293
T3 construct: purchased Promega (in-house HiBiT-GPCR construct library, NanoBRET)
Description: as §1, §2

SSTR3 = biological target: T4, SSTR3 (Homo sapiens, UniProt P32745); experiment: NanoBRET screen HiBiT-SSTR3 in HEK293
T4 construct: purchased Promega (in-house HiBiT-GPCR construct library, NanoBRET)
Description: as §1, §2

T1 sequence (P61073 whole entry): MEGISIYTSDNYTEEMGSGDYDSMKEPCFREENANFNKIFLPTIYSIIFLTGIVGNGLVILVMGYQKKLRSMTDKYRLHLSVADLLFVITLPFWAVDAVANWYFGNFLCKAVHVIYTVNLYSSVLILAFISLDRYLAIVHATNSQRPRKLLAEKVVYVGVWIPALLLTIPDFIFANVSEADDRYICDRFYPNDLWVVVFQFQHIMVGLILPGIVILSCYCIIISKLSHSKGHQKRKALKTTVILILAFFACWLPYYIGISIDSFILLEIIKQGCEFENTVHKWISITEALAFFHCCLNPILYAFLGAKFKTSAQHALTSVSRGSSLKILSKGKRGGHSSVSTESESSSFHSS
T3 sequence (Q99705 whole entry): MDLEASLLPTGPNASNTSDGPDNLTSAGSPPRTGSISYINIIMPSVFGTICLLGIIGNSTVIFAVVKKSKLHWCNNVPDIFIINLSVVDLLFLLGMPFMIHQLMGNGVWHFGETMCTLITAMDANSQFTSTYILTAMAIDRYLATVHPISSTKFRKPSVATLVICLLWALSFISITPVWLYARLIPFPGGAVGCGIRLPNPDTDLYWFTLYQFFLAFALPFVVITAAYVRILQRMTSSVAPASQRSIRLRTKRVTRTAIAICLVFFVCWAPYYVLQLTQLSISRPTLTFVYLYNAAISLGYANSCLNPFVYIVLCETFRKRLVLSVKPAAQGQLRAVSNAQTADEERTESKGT
T4 sequence (P32745 whole entry): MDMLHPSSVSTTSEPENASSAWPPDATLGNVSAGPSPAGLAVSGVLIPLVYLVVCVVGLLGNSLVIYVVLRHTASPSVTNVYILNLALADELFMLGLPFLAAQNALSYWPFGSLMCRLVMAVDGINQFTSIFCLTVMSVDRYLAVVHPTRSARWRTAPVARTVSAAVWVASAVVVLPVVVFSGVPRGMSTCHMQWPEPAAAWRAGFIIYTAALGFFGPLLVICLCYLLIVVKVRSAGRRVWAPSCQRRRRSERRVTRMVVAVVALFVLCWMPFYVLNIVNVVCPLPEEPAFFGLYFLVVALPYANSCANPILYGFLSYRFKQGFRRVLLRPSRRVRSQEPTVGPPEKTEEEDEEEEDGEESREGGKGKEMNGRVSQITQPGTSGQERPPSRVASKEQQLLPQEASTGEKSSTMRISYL

Row | SMILES | NanoBRET Fold Response (CXCR4; CXCR4, tracer 0.1μM) | NanoBRET Fold Response (CXCR4; CXCR4, tracer 1μM) | NanoBRET Fold Response (HCRTR2; HCRTR2, tracer 0.1μM) | NanoBRET Fold Response (HCRTR2; HCRTR2, tracer 1μM) | NanoBRET Fold Response (MCHR1; MCHR1, tracer 0.1μM) | NanoBRET Fold Response (MCHR1; MCHR1, tracer 1μM) | NanoBRET Fold Response (SSTR3; SSTR3, tracer 0.1μM) | NanoBRET Fold Response (SSTR3; SSTR3, tracer 1μM) | also measured
1 | O=C(CCOCCOCCOCCOCCNC(=O)CCc1ccc2n1[B-](F)(F)[N+]1=C(c3ccc[nH]3)C=CC1=C2)NCCCN1CCN(C2=Nc3ccccc3Oc3ccc(Cl)cc32)CC1 [Loxapine-a-2-NB590] | 1.03 | 1.03 | 1.13 | 1.16 | 1.03 | 1.20 | 1.01 | 1.25 | 
2 | CCCn1c(=O)c2[nH]c(-c3ccc(OCC(=O)NCCNC(=O)CCOCCNC(=O)c4ccc(CNC(=O)CCc5ccc6n5[B-](F)(F)[N+]5=C(c7ccc[nH]7)C=CC5=C6)cc4)cc3)nc2n(CCC)c1=O [XAC-3-NB590] | 0.90 | 0.92 | 1.06 | 0.97 | 1.01 | 1.03 | 0.99 | 0.98 | 
3 | CN(C)CCC=C1c2ccccc2CCc2ccc(C(=O)NCCNC(=O)CCOCCOCCOCCOCCNC(=O)CCc3ccc4n3[B-](F)(F)[N+]3=C(c5ccc[nH]5)C=CC3=C4)cc21 [Amitriptyline-a-2-NB590] |  |  |  |  |  |  |  |  | NanoBRET Fold Response (CXCR4; tracer at 0.1μM): 0.89; NanoBRET Fold Response (CXCR4; tracer at 1μM): 1.04; NanoBRET Fold Response (HCRTR2; tracer at 0.1μM): 1.05; NanoBRET Fold Response (HCRTR2; tracer at 1μM): 1.08; NanoBRET Fold Response (MCHR1; tracer at 0.1μM): 1.01; NanoBRET Fold Response (MCHR1; tracer at 1μM): 1.09; NanoBRET Fold Response (SSTR3; tracer at 0.1μM): 1.05; NanoBRET Fold Response (SSTR3; tracer at 1μM): 1.05
4 | COc1ccccc1N1CCN(CCCCN2C(=O)c3ccc(CNC(=O)CCOCCOCCOCCOCCNC(=O)CCc4ccc5n4[B-](F)(F)[N+]4=C(c6ccc[nH]6)C=CC4=C5)cc3C2=O)CC1 [NAN-190-2-NB590] | 1.00 | 1.03 | 1.02 | 1.00 |  | 0.93 | 1.00 | 1.05 | 
5 | O=C(CCc1ccc2n1[B-](F)(F)[N+]1=C(c3ccc[nH]3)C=CC1=C2)NCc1ccc(C(=O)NCCOCCOCCNCC(O)COc2cccc3ccccc23)cc1 (centres unmarked) [Propranolol-3-NB590] |  |  |  |  |  |  |  |  | NanoBRET Fold Response (CXCR4; CXCR4, 0.1μM): 1.04; NanoBRET Fold Response (CXCR4; CXCR4, 1μM): 1.02; NanoBRET Fold Response (HCRTR2; HCRTR2, 0.1μM): 1.09; NanoBRET Fold Response (HCRTR2; HCRTR2, 1μM): 1.00; NanoBRET Fold Response (MCHR1; MCHR1, 0.1μM): 0.96; NanoBRET Fold Response (MCHR1; MCHR1, 1μM): 1.03; NanoBRET Fold Response (SSTR3; SSTR3, 0.1μM): 0.99; NanoBRET Fold Response (SSTR3; SSTR3, 1μM): 1.01
6 | COc1ccccc1N1CCN(CCCCN2C(=O)c3ccc(CNC(=O)CCOCCNC(=O)c4ccc(CNC(=O)CCc5ccc6n5[B-](F)(F)[N+]5=C(c7ccc[nH]7)C=CC5=C6)cc4)cc3C2=O)CC1 [NAN-190-3-NB590] | 1.24 | 1.08 | 0.98 | 0.97 | 1.20 | 0.86 | 1.07 | 0.93 | 
7 | O=C(CCc1ccc2n1[B-](F)(F)[N+]1=C(c3ccc[nH]3)C=CC1=C2)NCc1ccc(C(=O)NCCOCCC(=O)N[C@@H]2CC[C@@]3(O)[C@H]4Cc5ccc(O)c6c5[C@@]3(CCN4CC3CC3)[C@H]2O6)cc1 [Naltrexone-3-NB590] | 1.30 | 0.84 | 1.04 | 1.01 | 1.07 | 0.92 | 0.97 | 1.01 | 
8 | CCOC(=O)c1cc(C#N)c(N2CCC(C(=O)NS(=O)(=O)Cc3ccccc3/C=C/C(=O)NCCNC(=O)CCc3ccc4n3[B-](F)(F)[N+]3=C(c5ccc[nH]5)C=CC3=C4)CC2)nc1C [AZD1283-1-NB590] |  |  |  |  |  |  |  |  | NanoBRET Fold Response (CXCR4; CXCR4, 0.1μM): 0.86; NanoBRET Fold Response (CXCR4; CXCR4, 1μM): 1.17; NanoBRET Fold Response (HCRTR2; HCRTR2, 0.1μM): 1.01; NanoBRET Fold Response (HCRTR2; HCRTR2, 1μM): 1.01; NanoBRET Fold Response (MCHR1; MCHR1, 0.1μM): 1.00; NanoBRET Fold Response (MCHR1; MCHR1, 1μM): 1.08; NanoBRET Fold Response (SSTR3; SSTR3, 0.1μM): 1.07; NanoBRET Fold Response (SSTR3; SSTR3, 1μM): 1.13
9 | COc1ccc2[nH]c(-c3ccc(CNC(=O)CCOCCOCCOCCOCCNC(=O)CCc4ccc5n4[B-](F)(F)[N+]4=C(c6ccc[nH]6)C=CC4=C5)cc3)c(CCNC(C)=O)c2n1 [AzomelatoninICO9-2-NB590] |  |  |  |  |  |  |  |  | NanoBRET Fold Response (CXCR4; 0.1μM tracer): 1.00; NanoBRET Fold Response (CXCR4; 1μM tracer): 0.81; NanoBRET Fold Response (HCRTR2; 0.1μM tracer): 1.02; NanoBRET Fold Response (HCRTR2; 1μM tracer): 1.08; NanoBRET Fold Response (MCHR1; 0.1μM tracer): 1.38; NanoBRET Fold Response (MCHR1; 1μM tracer): 0.88; NanoBRET Fold Response (SSTR3; 0.1μM tracer): 0.94; NanoBRET Fold Response (SSTR3; 1μM tracer): 1.01
10 | CC(C)N(CC[C@H](c1ccccc1)c1cc(CCNC(=O)CCOCCOCCOCCOCCNC(=O)CCc2ccc3n2[B-](F)(F)[N+]2=C(c4ccc[nH]4)C=CC2=C3)ccc1O)C(C)C [Tolterodine-2-NB590] | 0.88 | 1.02 | 1.04 | 1.00 | 1.18 | 0.95 | 1.08 | 1.17 | 
11 | CN(CCC=C1c2ccccc2CCc2ccccc21)C(=O)CCOCCOCCOCCOCCNC(=O)CCc1ccc2n1[B-](F)(F)[N+]1=C(c3ccc[nH]3)C=CC1=C2 [Amitriptyline-e-2-NB590] |  |  |  |  |  |  |  |  | NanoBRET Fold Response (CXCR4; tracer at 1μM): 1.15
